Results on 45 compounds are retold here after patent publication EP1900728A1 (Genecare Research Institute Co., Ltd, priority 2005, dated 2006).

Read-outs that look alike come from different tables or passages of the source. Where only a bound is given, the exact number is not on record here.

For assay [1], the target named is T1, IκBα ubiquitinating enzyme (SCF complex: ROC1, Cullin1, Skp1, His-TrCP1; with E1, UbcH5b) (Homo sapiens, UniProt P62877+P63208+Q13616+Q9Y297).
T1 construct: His (polyhistidine); made in house; host or cells: insect cells (baculovirus) for the SCF complex and His-E1; E. coli for His-UBCH5b
The assay is described as follows: Measurement of ubiquitinating enzyme activity (IκBα ubiquitination, time-resolved fluorescence with Eu(K)-labeled ubiquitin and XL665-labeled anti-GST antibody). It counts as biochemical. In a few lines: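 Human SCF complex with E1 and UbcH5b ubiquitinated GST-IκBα pre-phosphorylated by IKKβ (2 mM ATP, pH 7.4, 1 h, RT), with Eu(K)-ubiquitin, 30 min RT. Stopped with EDTA, XL665 anti-GST added for 2 h; 665/620 nm TR-FRET ratio. % inhibition versus no-compound control and no-SCF blank gave IC50.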

Assay [2] deals with ICAM-1 expression in HT-29 cells. The assay is described as follows: Measurement of ICAM-1 expressing activity (TNFα-induced ICAM-1 expression, cell ELISA). Type of assay: cell-based. Particulars: Homo sapiens, Table 6, cell activity inhibition test by method (3), read-out: EVALUATION (IC50 class, inhibition of cell activity). As to the method: Method 2: Measurement of ICAM-1 expressing activity
2.0 x 10^4 HT-29 cells (ATCC) were plated onto a 96-well plate, and the cells were cultured for 48 hours using a McCoy' 5A medium (GIBCO) containing 10% inactivated fetal calf serum. The culture medium was removed, a culture medium containing a compound to be evaluated (final DMSO concentration of 0.5%) was added, and this was incubated at 37°C for 30 minutes. Thirty ng/mL of human TNFα (GIBCO) was added, and this was incubated at 37°C for 4 hours. After washing once with a washing solution (PBS containing 0.05% Tween 20), ice-cooled methanol was added, and this was left on ice for 10 minutes and then fixed. After removing methanol, PBS containing 1% BSA was added, and blocking was performed by letting this stand at room temperature for 30 minutes. Anti-ICAM-1 antibody (Santa Cruz Biotechnology) was added, and this was left to stand at room temperature for 1 hour. After washing with the washing solution, POD-labeled secondary antibody was added, and this was left to stand at room temperature for 30 minutes. This was washed, 100 µL of 100 mM citric acid buffer (pH4.2) containing 1 mM TMBZ and 0.03% H2O2 was added, and this was reacted at room temperature for 15 minutes. The reaction was terminated with 100 µL of 2 N H2SO4, and the absorbance at 450 nm was measured using ARVO-HTS (Perkin Elmer).
When cells are stimulated with TNFα, IκBα is degraded after ubiquitination resulting in the activation of NFκB and the promotion of the expression of adhesion factor ICAM-1. Therefore, the suppression of ICAM-1 expression described above serves as an indicator to determine the effectiveness of the compound in the cells.
(An ELISA detects its analyte on a solid surface through an enzyme-linked reagent.)

[3] abbreviates: enzyme activity inhibition test, method (1), Table 5, read-out: EVALUATION

T1 sequence (Q9Y297 whole entry): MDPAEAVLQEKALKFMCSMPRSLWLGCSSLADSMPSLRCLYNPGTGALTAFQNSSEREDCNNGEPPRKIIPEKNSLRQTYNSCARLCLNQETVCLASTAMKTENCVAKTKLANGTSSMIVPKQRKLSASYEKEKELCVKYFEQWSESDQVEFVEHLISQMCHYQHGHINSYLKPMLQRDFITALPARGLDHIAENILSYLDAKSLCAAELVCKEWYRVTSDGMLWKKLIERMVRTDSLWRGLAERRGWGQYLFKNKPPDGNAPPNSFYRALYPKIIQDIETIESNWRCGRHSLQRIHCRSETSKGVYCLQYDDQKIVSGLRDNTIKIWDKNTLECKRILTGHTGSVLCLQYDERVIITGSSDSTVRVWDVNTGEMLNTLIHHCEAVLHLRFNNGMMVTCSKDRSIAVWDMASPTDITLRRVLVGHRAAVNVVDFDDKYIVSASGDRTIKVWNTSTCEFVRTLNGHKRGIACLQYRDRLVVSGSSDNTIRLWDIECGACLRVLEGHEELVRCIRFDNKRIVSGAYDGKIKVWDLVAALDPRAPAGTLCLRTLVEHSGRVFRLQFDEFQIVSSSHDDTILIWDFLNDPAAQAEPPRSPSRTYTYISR
T1 sequence (Q13616 whole entry): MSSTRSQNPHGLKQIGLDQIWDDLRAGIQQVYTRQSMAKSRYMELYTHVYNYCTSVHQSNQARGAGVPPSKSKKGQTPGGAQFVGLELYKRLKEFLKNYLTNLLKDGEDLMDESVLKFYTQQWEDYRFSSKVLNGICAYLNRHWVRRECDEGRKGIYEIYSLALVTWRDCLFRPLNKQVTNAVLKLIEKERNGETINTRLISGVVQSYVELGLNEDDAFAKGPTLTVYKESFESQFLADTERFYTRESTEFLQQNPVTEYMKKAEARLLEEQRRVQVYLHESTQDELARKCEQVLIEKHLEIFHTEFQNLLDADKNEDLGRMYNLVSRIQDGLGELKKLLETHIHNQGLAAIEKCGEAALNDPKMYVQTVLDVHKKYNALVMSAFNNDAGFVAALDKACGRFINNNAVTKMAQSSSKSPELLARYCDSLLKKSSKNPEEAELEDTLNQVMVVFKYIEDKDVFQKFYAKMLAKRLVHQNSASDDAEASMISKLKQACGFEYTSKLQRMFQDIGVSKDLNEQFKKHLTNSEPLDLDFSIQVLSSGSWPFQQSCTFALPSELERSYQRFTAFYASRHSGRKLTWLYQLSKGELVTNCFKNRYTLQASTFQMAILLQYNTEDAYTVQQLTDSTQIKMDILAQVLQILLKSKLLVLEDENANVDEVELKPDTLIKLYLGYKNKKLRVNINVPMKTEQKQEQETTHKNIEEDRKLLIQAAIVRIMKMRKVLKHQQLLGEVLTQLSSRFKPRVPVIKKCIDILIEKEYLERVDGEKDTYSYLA
T1 sequence (P63208 whole entry): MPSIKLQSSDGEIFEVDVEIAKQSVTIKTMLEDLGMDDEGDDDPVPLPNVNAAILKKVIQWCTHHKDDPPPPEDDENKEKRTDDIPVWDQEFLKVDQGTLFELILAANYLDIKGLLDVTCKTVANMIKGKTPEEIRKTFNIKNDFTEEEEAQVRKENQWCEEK
T1 sequence (P62877 whole entry): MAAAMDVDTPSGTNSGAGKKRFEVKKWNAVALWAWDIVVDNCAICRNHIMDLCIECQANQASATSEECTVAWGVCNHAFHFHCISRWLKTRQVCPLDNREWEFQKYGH

Regarding `CC1=NN(c2ccc(C(=O)O)cc2)C(=O)C1=Cc1ccc(OCC(=O)N(C)C)cc1` [Compound 535], the IC50 in assay [1] and in assay [2] was 10 to 20 µM each time.
As for `CC1=NN(c2ccc(C(=O)O)cc2)C(=O)C1=Cc1ccc(OCCCN(C)C)cc1` [Compound 543], the IC50 in assay [1] and in assay [2] was less than 10 µM in each case.
In the case of `COc1cc(/C=C2\C(=O)N(c3ccccc3)N=C2c2ccoc2)ccc1OCc1ccccc1` [Compound 94], the IC50 in assay [1] (setting [3]) was less than 10 µM; in assay [2], less than 40 µM.
The corresponding values for `CC1=NN(c2ccc(S(N)(=O)=O)cc2)C(=O)/C1=C\c1ccc2ccccc2c1` [Compound 116] are 10 to 20 µM and 10 to 20 µM.
On the same counts, the results for `COCC1=NN(c2ccc(C(=O)O)cc2)C(=O)/C1=C\c1ccc(-n2cccn2)cc1` [Compound 242] are less than 10 µM and 10 to 20 µM.
The corresponding values for `CC1=NN(c2ccc(S(N)(=O)=O)cc2)C(=O)/C1=C\c1ccc(NC(=O)c2ccccc2)cc1` [Compound 224] are less than 10 µM and 10 to 20 µM.
On to `CC1=NN(c2ccc(C(=O)O)cc2)C(=O)/C1=C\c1ccc(OCC(=O)N2CCCCC2)cc1` [Compound 533], for which the IC50 in assay [1] (setting [3]) is less than 10 µM; in assay [2], 10 to 20 µM.
The corresponding values for `COc1cc(/C=C2\C(=O)N(c3ccc(C(=O)O)cc3)N=C2C)ccc1OCC1CC1` [Compound 390] are less than 10 µM and 10 to 20 µM.
For the compound `CC1=NN(c2ccc(C(=O)O)cc2)C(=O)C1=Cc1ccc2[nH]ccc2c1` [Compound 349], the IC50 is less than 10 µM in assay [1] and less than 40 µM in assay [2].
With `CC1=NN(c2ccc(C(=O)N3CCC(CO)CC3)cc2)C(=O)/C1=C\c1ccc2c(c1)OCCO2` [Compound 387], the figures for the IC50 in assay [1] (setting [3]) and in assay [2] were 10 to 20 µM and less than 40 µM, respectively.
The corresponding values for `CC1=NN(c2cccc(C(=O)O)c2)C(=O)/C1=C\c1ccc([N+](=O)[O-])o1` [Compound 425] are less than 10 µM and 10 to 20 µM.
The corresponding values for `O=C(O)c1ccc(N2N=C(c3ccccn3)/C(=C/c3ccc(-c4ccccc4F)o3)C2=O)cc1` [Compound 290] are less than 10 µM and 10 to 20 µM.
Consider `O=C(O)c1ccc(N2N=C(Cc3ccccc3)/C(=C/c3ccc(-n4ccnc4)cc3)C2=O)cc1` [Compound 271], for which the IC50 in assay [1] (setting [3]) is 10 to 20 µM; in assay [2], less than 40 µM.
On the same counts, the results for `CC1=NN(c2cccc(C(=O)N3CCOCC3)c2)C(=O)/C1=C\c1ccc2c(c1)OCCO2` [Compound 411] are less than 10 µM and less than 40 µM.
In the case of `CCCCC1=NN(c2cccc(C(=O)O)c2)C(=O)/C1=C\c1ccc2c(c1)OCO2` [Compound 473], the IC50 was 10 to 20 µM in assay [1] (setting [3]) and less than 40 µM in assay [2].
Regarding `CC1=NN(c2cccc(C(=O)N3CCCC3CO)c2)C(=O)/C1=C\c1ccc2[nH]ccc2c1` (stereo not drawn) [Compound 372], the IC50 in assay [1] (setting [3]) was less than 10 µM; in assay [2], 10 to 20 µM.
The corresponding values for `COc1ccc(C2=NN(c3ccccc3)C(=O)/C2=C\c2ccc3c(c2)OCCO3)cc1OC` [Compound 37] are 10 to 20 µM and less than 40 µM.
On the same counts, the results for `CC1=NN(c2ccc(C(=O)N3CCC(O)C3)cc2)C(=O)/C1=C\c1ccc2c(c1)OCCO2` (stereo not drawn) [Compound 413] are less than 10 µM and 10 to 20 µM.
Take `CC(=O)N1CCN(c2ccc(/C=C3\C(=O)N(c4cccc(C(=O)O)c4)N=C3C)cc2)CC1` [Compound 442]: the IC50 is less than 10 µM in assay [1] (setting [3]) and less than 40 µM in assay [2].
Regarding `CCOC(=O)c1ccc(COc2ccc(/C=C3\C(=O)N(c4ccc(C(=O)O)cc4)N=C3C)cc2OC)o1` [Compound 392], the IC50 in assay [1] (setting [3]) is less than 10 µM; in assay [2] it was 10 to 20 µM.
The corresponding values for `COCC1=NN(c2ccc(C(=O)O)cc2)C(=O)/C1=C\c1ccc(N2CCCC2)cc1` [Compound 236] are less than 10 µM and 10 to 20 µM.
On the same counts, the results for `CC1=NN(c2ccc(C(=O)O)cc2)C(=O)/C1=C\c1ccc(-c2ccccc2Cl)o1` [Compound 456] are less than 10 µM and less than 10 µM.
The corresponding values for `CC1=NN(c2ccc(S(N)(=O)=O)cc2)C(=O)/C1=C\c1ccc(Oc2ccccc2)cc1` [Compound 213] are 10 to 20 µM and less than 10 µM.
In the case of `CCCCC1=NN(c2ccc(C(=O)O)cc2)C(=O)C1=Cc1ccc2c(c1)OCO2` [Compound 480], the IC50 in assay [1] was less than 10 µM; in assay [2], 10 to 20 µM.
For `O=C(O)c1ccc(N2N=C(C3CC3)/C(=C/c3ccc(-n4cccn4)cc3)C2=O)cc1` [Compound 322], the IC50 is less than 10 µM in assay [1] (setting [3]) and 10 to 20 µM in assay [2].
With `CC1=NN(c2ccc(S(N)(=O)=O)cc2)C(=O)/C1=C\c1ccc(OCC(N)=O)cc1` [Compound 208], the IC50 was less than 10 µM in assay [1] (setting [3]) and less than 40 µM in assay [2].
On the same counts, the results for `CC1=NN(c2cccc(C(=O)N3CCN(c4ccc(O)cc4)CC3)c2)C(=O)/C1=C\c1ccc2[nH]ccc2c1` [Compound 375] are less than 10 µM and less than 40 µM.
On the same counts, the results for `O=C1/C(=C\c2ccc3ccccc3c2)C(c2ccoc2)=NN1c1ccccc1` [Compound 12] are less than 10 µM and less than 40 µM.
On the same counts, the results for `CCCCC1=NN(c2ccc(C(=O)O)cc2)C(=O)/C1=C\c1ccc(N2CCCC2)cc1` [Compound 301] are 10 to 20 µM and less than 10 µM.
Take `CC1=NN(c2ccc(C(=O)N3CCCC3CO)cc2)C(=O)/C1=C\c1ccc2c(c1)OCCO2` (stereo not drawn) [Compound 410]: the IC50 in assay [1] (setting [3]) is less than 10 µM; in assay [2], 10 to 20 µM.
On the same counts, the results for `CC1=NN(c2ccccc2)C(=O)/C1=C\c1ccc2[nH]ccc2c1` [Compound 127] are less than 10 µM and less than 40 µM.
On the same counts, the results for `CCCCC1=NN(c2ccc(C(=O)O)cc2)C(=O)/C1=C\c1ccc(OCc2ccccc2)c(OC)c1` [Compound 296] are less than 10 µM and less than 40 µM.
The corresponding values for `O=C(O)c1ccc(N2N=C(c3ccncc3)/C(=C/c3ccc(N4CCCC4)cc3)C2=O)cc1` [Compound 287] are less than 10 µM and 10 to 20 µM.
On to `COc1cc(/C=C2\C(=O)N(c3ccc(C(=O)O)cc3)N=C2c2ccoc2)ccc1O` [Compound 244], for which the IC50 in assay [1] (setting [3]) is less than 10 µM; in assay [2] it was 10 to 20 µM.
As to `O=C(O)c1ccc(N2N=C(c3ccoc3)/C(=C/c3nccs3)C2=O)cc1` [Compound 249], the IC50 in assay [1] (setting [3]) was 10 to 20 µM; in assay [2], less than 40 µM.
The corresponding values for `O=C(O)c1ccc(N2N=C(Cc3ccccc3)/C(=C/c3ccc(-c4ccccc4F)o3)C2=O)cc1` [Compound 267, 4-{3-Benzyl-4-[5-(2-fluorophenyl)-furan-2-ylmethylenc]-5-oxo-4.5-dihydropyrazol-1-yl} benzoic acid] are less than 10 µM and less than 10 µM.
The corresponding values for `COc1cccc(-c2ccc(/C=C3\C(=O)N(c4ccc(C(=O)O)cc4)N=C3C)o2)c1` [Compound 501] are less than 10 µM and less than 10 µM.
The corresponding values for `CC1=NN(c2cccc(C(=O)O)c2)C(=O)/C1=C\c1ccc2c(ccn2Cc2ccccc2)c1` [Compound 494] are less than 10 µM and less than 40 µM.
In the case of `CC1=NN(c2ccc(C(=O)O)cc2)C(=O)/C1=C\c1ccc2ccccc2c1` [Compound 253], the values for the IC50 in assay [1] (setting [3]) and in assay [2] were less than 10 µM and 10 to 20 µM, respectively.
As to `COc1cc(/C=C2\C(=O)N(c3ccc(C(=O)O)cc3)N=C2C)ccc1OCc1c(C)noc1C` [Compound 391], the values for the IC50 in assay [1] (setting [3]) and in assay [2] were less than 10 µM and 10 to 20 µM, respectively.
On the same counts, the results for `CC1=NN(c2ccc(C(=O)O)cc2)C(=O)/C1=C\c1ccc2occc2c1` [Compound 370] are less than 10 µM and 10 to 20 µM.
`CC1=NN(c2cccc(C(=O)O)c2)C(=O)/C1=C\c1ccc2c(ccn2C(=O)c2cccn2C)c1` [Compound 532]: the values for the IC50 in assay [1] (setting [3]) and in assay [2] were less than 10 µM and less than 40 µM, respectively.
Regarding `CCCCC1=NN(c2ccc(C(=O)O)cc2)C(=O)/C1=C\c1cccc2nccnc12` [Compound 297], the IC50 in assay [1] (setting [3]) and in assay [2] was 10 to 20 µM in each case.
With `O=C(O)c1ccc(N2N=C(Cc3ccccc3)/C(=C/c3ccc(CO)o3)C2=O)cc1` [Compound 268], the IC50 in assay [1] (setting [3]) is 10 to 20 µM; in assay [2] it was less than 40 µM.
On the same counts, the results for `COCC1=NN(c2ccc(C(=O)O)cc2)C(=O)/C1=C\c1ccc(N2CCN(C(=O)OC)CC2)cc1` [Compound 235] are less than 10 µM and less than 10 µM.
